{"source": "ChEMBL document CHEMBL3875162", "about": "“Synthesis and biological evaluation of new benzimidazole-thiazolidinedione hybrids as potential cytotoxic and apoptosis inducing agents” (Eur J Med Chem, 2016)", "key": {"[1]": {"system": "A549", "test": "Induction of apoptosis in human A549 cells assessed as viable cells at 5 uM after 24 hrs by Annexin V-FITC/propidium iodide staining based flow cytometry (reference value: 94%)", "type": "functional", "details": "A549, 24 h, read-out: Activity"}, "[2]": {"test": "Cytotoxicity against human PC3 cells assessed as cell growth inhibition after 48 hrs by MTT assay", "type": "functional, cell-based", "details": "PC-3, 48 h"}, "[3]": {"test": "Cell cycle arrest in human A549 cells assessed as accumulation at S phase at 10 uM after 24 hrs by propidium iodide staining-based flow cytometry (reference value: 11.5%)", "type": "functional"}, "[4]": {"system": "A549", "test": "Induction of apoptosis in human A549 cells assessed as pyknosis at 5 to 15 uM after 24 hrs by DAPI staining based fluorescence microscopic method", "type": "functional, cell-based"}, "[5]": {"system": "A549", "test": "Induction of apoptosis in human A549 cells after 24 hrs by Annexin V-FITC/propidium iodide staining based flow cytometry", "type": "functional, cell-based"}, "[6]": {"system": "A549", "test": "Induction of apoptosis in human A549 cells assessed as viable cells at 10 uM after 24 hrs by Annexin V-FITC/propidium iodide staining based flow cytometry (reference value: 94%)", "type": "functional", "details": "A549, 24 h, read-out: Activity"}, "[7]": {"system": "A549", "test": "Induction of apoptosis in human A549 cells assessed as early apoptotic cells at 15 uM after 24 hrs by Annexin V-FITC/propidium iodide staining based flow cytometry (reference value: 2.6%)", "type": "functional"}, "[8]": {"test": "Cell cycle arrest in human A549 cells assessed as accumulation at S phase at 5 uM after 24 hrs by propidium iodide staining-based flow cytometry (reference value: 11.5%)", "type": "functional"}, "[9]": {"test": "Induction of apoptosis in human A549 cells assessed as irregular distribution of chromatin at 10 to 15 uM after 24 hrs by acridine orange/ethidium bromide-dual staining based fluorescence microscopic method", "type": "functional, cell-based"}, "[10]": {"system": "A549", "test": "Induction of apoptosis in human A549 cells assessed as chromatin condensation at 5 to 15 uM after 24 hrs by DAPI staining based fluorescence microscopic method", "type": "functional, cell-based"}, "[11]": {"test": "Cell cycle arrest in human A549 cells assessed as accumulation at G2/M phase at 15 uM after 24 hrs by propidium iodide staining-based flow cytometry (reference value: 23.3%)", "type": "functional"}, "[12]": {"system": "A549", "test": "Induction of apoptosis in human A549 cells assessed as destructive fragmentation of nucleus forming horse-shoe shaped structure at 10 to 15 uM after 24 hrs by acridine orange/ethidium bromide-dual staining based fluorescence microscopic method", "type": "functional, cell-based"}, "[13]": {"system": "A549", "test": "Induction of morphological changes in human A549 cells assessed as […] at 5 to 15 uM after 24 hrs by phase contrast microscopic method", "type": "functional, cell-based"}, "[14]": {"system": "A549", "test": "Induction of apoptosis in human A549 cells assessed as necrotic cells at 10 uM after 24 hrs by Annexin V-FITC/propidium iodide staining based flow cytometry (reference value: 2.3%)", "type": "functional"}, "[15]": {"test": "Antimigratory activity in human A549 cells assessed as cell migration at 10 uM after 24 hrs by phase contrast microscopy-based wound healing assay relative to control", "type": "functional"}, "[16]": {"test": "Cell cycle arrest in human A549 cells assessed as accumulation at G0/G1 phase at 15 uM after 24 hrs by propidium iodide staining-based flow cytometry (reference value: 66.6%)", "type": "functional"}, "[17]": {"system": "A549", "test": "Induction of apoptosis in human A549 cells assessed as decrease in cell viability at 5 to 15 uM after 24 hrs by phase contrast microscopic method", "type": "functional, cell-based"}, "[18]": {"system": "A549", "test": "Induction of apoptosis in human A549 cells assessed as apoptotic body formation at 10 to 15 uM after 24 hrs by acridine orange/ethidium bromide-dual staining based fluorescence microscopic method", "type": "functional, cell-based"}, "[19]": {"test": "Cytotoxicity against human DU145 cells assessed as cell growth inhibition after 48 hrs by MTT assay", "type": "functional, cell-based", "details": "DU-145, 48 h"}, "[20]": {"system": "A549", "test": "Induction of apoptosis in human A549 cells assessed as condensation of chromatin at 5 uM after 24 hrs by acridine orange/ethidium bromide-dual staining based fluorescence microscopic method", "type": "functional, cell-based"}, "[21]": {"system": "A549", "test": "Induction of mitochondrial membrane potential loss in human A549 cells at 5 uM after 24 hrs by rhodamine-123 staining based flow cytometry relative to control", "type": "functional"}, "[22]": {"test": "Cell cycle arrest in human A549 cells assessed as accumulation at G0/G1 phase at 10 uM after 24 hrs by propidium iodide staining-based flow cytometry (reference value: 66.6%)", "type": "functional"}, "[23]": {"test": "Cell cycle arrest in human A549 cells assessed as accumulation at G2/M phase at 10 uM after 24 hrs by propidium iodide staining-based flow cytometry (reference value: 23.3%)", "type": "functional"}, "[24]": {"system": "A549", "test": "Induction of mitochondrial membrane potential loss in human A549 cells at 15 uM after 24 hrs by rhodamine-123 staining based flow cytometry relative to control", "type": "functional"}, "[25]": {"test": "Cytotoxicity against human MDA-MB-231 cells assessed as cell growth inhibition after 48 hrs by MTT assay", "type": "functional, cell-based", "details": "MDA-MB-231, 48 h"}, "[26]": {"system": "A549", "test": "Induction of apoptosis in human A549 cells assessed as increase in superoxide production after 24 to 48 hrs by mitoSOX red-probe based fluorescence microscopic method", "type": "functional, cell-based"}, "[27]": {"system": "A549", "test": "Induction of apoptosis in human A549 cells assessed as necrotic cells at 5 uM after 24 hrs by Annexin V-FITC/propidium iodide staining based flow cytometry (reference value: 2.3%)", "type": "functional"}, "[28]": {"system": "A549", "test": "Induction of apoptosis in human A549 cells assessed as cell membrane blebbing at 5 uM after 24 hrs by acridine orange/ethidium bromide-dual staining based fluorescence microscopic method", "type": "functional"}, "[29]": {"test": "Cytotoxicity against human A549 cells assessed as cell growth inhibition after 48 hrs by MTT assay", "type": "functional, cell-based", "details": "A549, 48 h"}, "[30]": {"test": "Cell cycle arrest in human A549 cells assessed as accumulation at G2/M phase at 5 uM after 24 hrs by propidium iodide staining-based flow cytometry (reference value: 23.3%)", "type": "functional"}, "[31]": {"system": "A549", "test": "Induction of apoptosis in human A549 cells assessed as nucleus fragmentation at 5 to 15 uM after 24 hrs by DAPI staining based fluorescence microscopic method", "type": "functional, cell-based"}, "[32]": {"system": "A549", "test": "Induction of apoptosis in human A549 cells assessed as late apoptotic cells at 15 uM after 24 hrs by Annexin V-FITC/propidium iodide staining based flow cytometry (reference value: 0.8%)", "type": "functional"}, "[33]": {"system": "A549", "test": "Induction of apoptosis in human A549 cells assessed as nuclear condensation at 5 to 15 uM after 24 hrs by DAPI staining based fluorescence microscopic method", "type": "functional, cell-based"}, "[34]": {"system": "A549", "test": "Induction of morphological changes in human A549 cells assessed as cell shrinkage at 5 to 15 uM after 24 hrs by phase contrast microscopic method", "type": "functional, cell-based"}, "[35]": {"test": "Cell cycle arrest in human A549 cells assessed as accumulation at S phase at 15 uM after 24 hrs by propidium iodide staining-based flow cytometry (reference value: 11.5%)", "type": "functional"}, "[36]": {"system": "A549", "test": "Induction of apoptosis in human A549 cells assessed as viable cells at 15 uM after 24 hrs by Annexin V-FITC/propidium iodide staining based flow cytometry (reference value: 94%)", "type": "functional", "details": "A549, 24 h, read-out: Activity"}, "[37]": {"system": "A549", "test": "Induction of apoptosis in human A549 cells assessed as late apoptotic cells at 5 uM after 24 hrs by Annexin V-FITC/propidium iodide staining based flow cytometry (reference value: 0.8%)", "type": "functional"}, "[38]": {"test": "Cell cycle arrest in human A549 cells assessed as accumulation at G0/G1 phase at 5 uM after 24 hrs by propidium iodide staining-based flow cytometry (reference value: 66.6%)", "type": "functional"}}, "note": "The source made the active and inactive calls. The rule behind the calls is not given here."}
{"smiles": "Cn1c(/C=C2\\SC(=O)N(CC(=O)Nc3nc(-c4ccccc4)cs3)C2=O)nc2ccccc21", "values": [{"measurement": "viability at 5 µM", "setting": "[1]", "result": 80.5, "unit": "%"}, {"measurement": "IC50", "setting": "[2]", "result": 39.9, "unit": "µM"}, {"measurement": "Activity", "setting": "[3]", "result": 7.9, "unit": "%"}, {"measurement": "Activity", "setting": "[4]", "result": "Active"}, {"measurement": "Activity", "setting": "[5]", "result": "Dose-dependent effect"}, {"measurement": "viability at 10 µM", "setting": "[6]", "result": 73.3, "unit": "%"}, {"measurement": "Activity", "setting": "[7]", "result": 19.4, "unit": "%"}, {"measurement": "Activity", "setting": "[8]", "result": 11.4, "unit": "%"}, {"measurement": "Activity", "setting": "[9]", "result": "Active"}, {"measurement": "Activity", "setting": "[10]", "result": "Active"}, {"measurement": "Activity", "setting": "[11]", "result": 57.8, "unit": "%"}, {"measurement": "Activity", "setting": "[12]", "result": "Active"}, {"measurement": "Activity", "setting": "[13]", "result": "Active"}, {"measurement": "Activity", "setting": "[14]", "result": 3, "unit": "%"}, {"measurement": "Activity", "setting": "[15]", "result": 74.3, "unit": "%"}, {"measurement": "Activity", "setting": "[16]", "result": 30.5, "unit": "%"}, {"measurement": "Activity", "setting": "[17]", "result": "Active"}, {"measurement": "Activity", "setting": "[18]", "result": "Active"}, {"measurement": "IC50", "setting": "[19]", "result": 31.4, "unit": "µM"}, {"measurement": "Activity", "setting": "[20]", "result": "Active"}, {"measurement": "Activity", "setting": "[21]", "result": 24.6, "unit": "%"}, {"measurement": "Activity", "setting": "[22]", "result": 44.8, "unit": "%"}, {"measurement": "Activity", "setting": "[23]", "result": 49.3, "unit": "%"}, {"measurement": "Activity", "setting": "[24]", "result": 45.8, "unit": "%"}, {"measurement": "IC50", "setting": "[25]", "result": 29.2, "unit": "µM"}, {"measurement": "Activity", "setting": "[26]", "result": "Dose-dependent effect"}, {"measurement": "Activity", "setting": "[27]", "result": 0.6, "unit": "%"}, {"measurement": "Activity", "setting": "[28]", "result": "Active"}, {"measurement": "IC50", "setting": "[29]", "result": 11.5, "unit": "µM"}, {"measurement": "Activity", "setting": "[30]", "result": 41.4, "unit": "%"}, {"measurement": "Activity", "setting": "[31]", "result": "Active"}, {"measurement": "Activity", "setting": "[32]", "result": 11.9, "unit": "%"}, {"measurement": "Activity", "setting": "[33]", "result": "Active"}, {"measurement": "Activity", "setting": "[34]", "result": "Active"}, {"measurement": "Activity", "setting": "[35]", "result": 13.5, "unit": "%"}, {"measurement": "viability at 15 µM", "setting": "[36]", "result": 66.8, "unit": "%"}, {"measurement": "Activity", "setting": "[37]", "result": 6.2, "unit": "%"}, {"measurement": "Activity", "setting": "[38]", "result": 48.9, "unit": "%"}]}
